These results are taken from US8853418B2, “Cyclopentylpyrazoles as N-type calcium channel blockers” (Janssen Pharmaceutica NV, priority 2012, dated 2014).

Where two headings read alike, the source gives them in different places.

The target of experiment [1] is N-type calcium channel (α1B (Cav2.2), β3 and α2δ subunits) (Homo sapiens, UniProt Q00975). In words: Functional Assay: Antagonism of N-Type Calcium Channel (FDSS calcium mobilization, KCl depolarization). It is filed as cell-based. The settings on record: for IC50: HEK cell line, 50 mM KCl depolarization, six-point concentration-response, read-out: FDSS IC50. The procedure, abridged: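 HEK cells stably co-expressing α1B (Cav2.2), β3 and α2δ were loaded with calcium dye, then given compound with fluorescence recorded for 5 min before 50 mM KCl depolarisation and 3 min more reading. IC50 came from six-point curves of maximal fluorescence, normalised to KCl maximum and buffer minimum.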
N-type calcium channel (α1B (Cav2.2), β3 and α2δ subunits), sequence (Q00975 whole entry): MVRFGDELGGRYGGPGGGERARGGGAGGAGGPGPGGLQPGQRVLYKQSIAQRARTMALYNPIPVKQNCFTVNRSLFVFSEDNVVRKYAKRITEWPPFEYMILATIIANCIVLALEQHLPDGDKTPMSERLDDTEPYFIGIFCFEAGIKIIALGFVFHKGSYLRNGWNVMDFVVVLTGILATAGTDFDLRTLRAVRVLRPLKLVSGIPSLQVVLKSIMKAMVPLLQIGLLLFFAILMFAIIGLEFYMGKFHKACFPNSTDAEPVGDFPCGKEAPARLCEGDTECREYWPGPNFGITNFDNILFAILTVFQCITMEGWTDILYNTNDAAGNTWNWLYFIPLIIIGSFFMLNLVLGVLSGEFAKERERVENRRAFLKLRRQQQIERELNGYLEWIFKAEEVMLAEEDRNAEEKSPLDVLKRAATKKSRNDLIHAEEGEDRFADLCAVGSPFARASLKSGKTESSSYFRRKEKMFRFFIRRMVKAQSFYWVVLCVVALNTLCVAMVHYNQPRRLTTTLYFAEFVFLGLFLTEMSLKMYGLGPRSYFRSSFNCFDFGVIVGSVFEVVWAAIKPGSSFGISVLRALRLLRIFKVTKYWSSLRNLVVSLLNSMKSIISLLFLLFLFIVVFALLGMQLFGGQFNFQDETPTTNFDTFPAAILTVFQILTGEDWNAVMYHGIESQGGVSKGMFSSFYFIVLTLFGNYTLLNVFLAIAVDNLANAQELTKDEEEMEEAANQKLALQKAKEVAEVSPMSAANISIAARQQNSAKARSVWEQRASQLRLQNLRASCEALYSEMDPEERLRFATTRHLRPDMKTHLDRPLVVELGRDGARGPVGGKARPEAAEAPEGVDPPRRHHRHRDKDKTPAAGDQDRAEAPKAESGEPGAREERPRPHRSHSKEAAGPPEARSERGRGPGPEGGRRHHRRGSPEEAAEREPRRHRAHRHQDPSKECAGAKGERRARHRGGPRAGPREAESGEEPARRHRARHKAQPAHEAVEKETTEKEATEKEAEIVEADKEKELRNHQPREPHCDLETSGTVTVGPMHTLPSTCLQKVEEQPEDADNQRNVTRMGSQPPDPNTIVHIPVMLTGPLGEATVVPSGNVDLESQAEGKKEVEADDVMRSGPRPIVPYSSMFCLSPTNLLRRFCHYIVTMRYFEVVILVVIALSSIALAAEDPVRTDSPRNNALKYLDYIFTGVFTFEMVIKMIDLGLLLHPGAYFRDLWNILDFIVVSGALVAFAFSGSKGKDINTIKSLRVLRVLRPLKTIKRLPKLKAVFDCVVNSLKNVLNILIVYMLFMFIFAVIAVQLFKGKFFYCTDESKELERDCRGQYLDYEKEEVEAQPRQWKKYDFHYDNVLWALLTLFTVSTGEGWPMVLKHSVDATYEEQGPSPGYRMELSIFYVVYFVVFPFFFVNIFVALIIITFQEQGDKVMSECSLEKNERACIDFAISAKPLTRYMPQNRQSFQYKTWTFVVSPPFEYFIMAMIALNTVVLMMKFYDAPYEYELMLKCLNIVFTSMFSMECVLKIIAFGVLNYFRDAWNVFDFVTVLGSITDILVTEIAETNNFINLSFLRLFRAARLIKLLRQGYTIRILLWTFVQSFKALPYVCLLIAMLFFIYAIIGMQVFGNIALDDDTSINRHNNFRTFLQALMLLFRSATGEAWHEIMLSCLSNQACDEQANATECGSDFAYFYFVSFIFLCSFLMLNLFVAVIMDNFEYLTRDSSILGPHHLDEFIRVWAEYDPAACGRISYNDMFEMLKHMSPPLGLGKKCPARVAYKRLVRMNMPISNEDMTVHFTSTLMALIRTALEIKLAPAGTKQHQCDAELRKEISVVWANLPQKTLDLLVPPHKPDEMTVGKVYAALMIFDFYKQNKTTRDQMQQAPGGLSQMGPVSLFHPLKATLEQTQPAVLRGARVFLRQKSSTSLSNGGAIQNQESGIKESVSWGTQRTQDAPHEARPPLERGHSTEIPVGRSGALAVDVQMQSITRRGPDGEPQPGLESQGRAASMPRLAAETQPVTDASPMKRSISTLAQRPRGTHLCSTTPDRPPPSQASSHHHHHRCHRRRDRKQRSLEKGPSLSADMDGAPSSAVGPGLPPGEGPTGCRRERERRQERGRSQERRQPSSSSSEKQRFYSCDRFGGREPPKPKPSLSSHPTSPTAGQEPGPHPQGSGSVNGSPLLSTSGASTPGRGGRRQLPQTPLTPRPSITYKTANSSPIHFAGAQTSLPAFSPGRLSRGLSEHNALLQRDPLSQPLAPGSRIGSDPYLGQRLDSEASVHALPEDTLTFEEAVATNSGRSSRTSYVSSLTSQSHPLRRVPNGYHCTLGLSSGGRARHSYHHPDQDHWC
N-type calcium channel (α1B (Cav2.2), β3 and α2δ subunits), sequence (P54284 whole entry partner): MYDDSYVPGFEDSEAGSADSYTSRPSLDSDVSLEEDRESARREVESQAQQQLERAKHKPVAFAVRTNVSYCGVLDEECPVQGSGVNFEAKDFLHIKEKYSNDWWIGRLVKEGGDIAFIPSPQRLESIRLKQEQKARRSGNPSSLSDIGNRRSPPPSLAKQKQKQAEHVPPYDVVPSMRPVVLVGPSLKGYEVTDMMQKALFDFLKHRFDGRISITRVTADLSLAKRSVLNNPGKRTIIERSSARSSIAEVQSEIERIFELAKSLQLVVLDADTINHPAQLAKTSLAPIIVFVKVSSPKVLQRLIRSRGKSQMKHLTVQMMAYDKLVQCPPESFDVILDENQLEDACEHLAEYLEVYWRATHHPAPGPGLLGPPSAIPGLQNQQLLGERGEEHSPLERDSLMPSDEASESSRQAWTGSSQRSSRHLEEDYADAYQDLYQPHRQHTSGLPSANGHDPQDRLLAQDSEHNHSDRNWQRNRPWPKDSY
N-type calcium channel (α1B (Cav2.2), β3 and α2δ subunits), sequence (P54289 25-946 partner limits assumed): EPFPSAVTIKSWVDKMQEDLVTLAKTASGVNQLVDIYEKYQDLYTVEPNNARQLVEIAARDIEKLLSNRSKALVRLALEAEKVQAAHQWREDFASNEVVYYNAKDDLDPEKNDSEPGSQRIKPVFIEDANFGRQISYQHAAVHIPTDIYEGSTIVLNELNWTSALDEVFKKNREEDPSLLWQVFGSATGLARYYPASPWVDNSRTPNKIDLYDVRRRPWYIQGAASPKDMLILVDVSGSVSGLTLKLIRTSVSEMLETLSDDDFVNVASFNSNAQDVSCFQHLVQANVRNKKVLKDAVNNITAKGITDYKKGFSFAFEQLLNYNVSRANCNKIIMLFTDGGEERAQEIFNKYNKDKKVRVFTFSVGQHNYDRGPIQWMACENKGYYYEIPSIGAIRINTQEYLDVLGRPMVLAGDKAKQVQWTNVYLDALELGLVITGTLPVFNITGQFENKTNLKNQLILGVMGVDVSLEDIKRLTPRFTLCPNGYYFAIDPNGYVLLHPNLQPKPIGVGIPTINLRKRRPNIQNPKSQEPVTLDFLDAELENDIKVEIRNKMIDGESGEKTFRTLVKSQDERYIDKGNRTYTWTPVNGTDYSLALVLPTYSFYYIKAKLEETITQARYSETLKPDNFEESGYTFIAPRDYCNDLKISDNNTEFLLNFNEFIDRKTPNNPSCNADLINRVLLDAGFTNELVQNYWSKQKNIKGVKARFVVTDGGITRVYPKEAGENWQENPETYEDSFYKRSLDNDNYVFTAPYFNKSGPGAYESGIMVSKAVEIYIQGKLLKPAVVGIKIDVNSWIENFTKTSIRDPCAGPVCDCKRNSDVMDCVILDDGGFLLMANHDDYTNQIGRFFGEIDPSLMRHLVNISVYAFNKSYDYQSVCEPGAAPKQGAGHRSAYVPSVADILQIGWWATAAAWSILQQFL
N-type calcium channel (α1B (Cav2.2), β3 and α2δ subunits), sequence (P54289 947-1103 partner limits assumed): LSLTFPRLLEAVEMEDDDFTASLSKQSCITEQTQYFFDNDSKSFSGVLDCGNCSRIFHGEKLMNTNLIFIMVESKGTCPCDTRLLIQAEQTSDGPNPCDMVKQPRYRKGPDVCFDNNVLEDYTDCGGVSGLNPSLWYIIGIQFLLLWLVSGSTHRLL
A general note: Calcium assays in cells follow changes in intracellular calcium, usually with a dye or a luminescent sensor.

Experiment [2] addresses N-type calcium channel (Homo sapiens, UniProt Q00975). In words: Automated Electrophysiology Assay (QPatch-HT whole-cell patch clamp; low- and high-frequency stimulation). It is filed as cell-based.
The mark [3] stands for this setting: 0.1 μM, high-frequency stimulation (15th pulse), read-out: QPatch at High Frequency % Inhibition.
Setting [4] is: low frequency, 0.1 μM, read-out: QPatch at Low Frequency % Inhibition.
[5] abbreviates: 1 μM, high-frequency stimulation (15th pulse), read-out: QPatch at High Frequency % Inhibition.
The mark [6] stands for this setting: low frequency, 1 μM, read-out: QPatch at Low Frequency % Inhibition.
Where [7] appears, read: 0.1 μM, high-frequency stimulation (15th pulse).

For orientation: inhibition means the drop in the measured response relative to a control, in per cent. Broadly, the IC50 is the concentration that inhibits the measured activity by half.

N-type calcium channel, sequence (Q00975 whole entry): as the sequence (Q00975 whole entry) above
N-type calcium channel, sequence (P54284 whole entry partner): as the sequence (P54284 whole entry partner) above
N-type calcium channel, sequence (P54289 25-946 partner limits assumed): as the sequence (P54289 25-946 partner limits assumed) above
N-type calcium channel, sequence (P54289 947-1103 partner limits assumed): as the sequence (P54289 947-1103 partner limits assumed) above

As to `COc1ccccc1-n1nc2c(c1-c1ccc(Cl)cc1)CC1(C2)O[C@@H](C)C[C@H](C)O1` (stereo partly drawn) [Compound 101, (4′S,6′S)-3-(4-chlorophenyl)-2-(2-methoxyphenyl)-4′,6′-dimethyl-2,6-dihydro-4H-spiro[cyclopenta[c]pyrazole-5,2′-[1,3]dioxane]], the inhibition at 0.33 µM in experiment [1] (0.33 μM) is 98%. The half-maximal inhibitory concentration (IC50) in experiment [1] was determined as 27 nM. Also, the inhibition at 0.1 µM in experiment [2] (setting [3]) is 40%; in experiment [2] (setting [4]), 3%.

As to `COc1ccccc1-n1nc2c(c1-c1ccc(Cl)cc1)CC1(C2)O[C@@H](C)[C@@H](C)O1` (stereo partly drawn) [Compound 102, (4′R,5′S)-3-(4-chlorophenyl)-2-(2-methoxyphenyl)-4′,5′-dimethyl-2,6-dihydro-4H-spiro[cyclopenta[c]pyrazole-5,2′-[1,3]dioxolane]], the inhibition at 0.33 µM in experiment [1] (0.33 μM) came out at 97%. For the same compound, the IC50 in experiment [1] stood at 7.6 nM. The figures for the inhibition at 1 µM in experiment [2] (setting [5]) and in experiment [2] (setting [6]) were 58% and 42%, respectively.

Turning to `COc1ccccc1-n1nc2c(c1-c1ccc(Cl)cc1)CC1(C2)O[C@@H](C)[C@@H](C)O1` (stereo partly drawn) [Compound 103, (4′R,5′S)-3-(4-chlorophenyl)-2-(2-methoxyphenyl)-4′,5′-dimethyl-2,6-dihydro-4H-spiro[cyclopenta[c]pyrazole-5,2′-[1,3]dioxolane]], in experiment [1] (0.33 μM), the “% Inhibition (%) at 0.33 μM” value is given as 101%. Besides, in experiment [1], the concentration for half-maximal inhibition (IC50) is 4.8 nM. For the same compound, the inhibition at 0.1 µM in experiment [2] (setting [3]) came to 46%; in experiment [2] (setting [4]), 12%. In experiment [2] (1 μM, high-frequency stimulation (15th pulse)), the “QPatch at High Frequency % Inhibition” value is 69%. In addition, in experiment [2] (low frequency, 0.01 μM, read-out: QPatch at Low Frequency % Inhibition), the inhibition at 0.01 µM was -21%. Moreover, the “QPatch at Low Frequency % Inhibition” value in experiment [2] (low frequency, 1 μM) was 36%.

As for `COc1ccccc1-n1nc2c(c1-c1ccc(C#N)cc1)CC(CC(C)C)C2` (stereo not shown) [Compound 105, 4-[2-(2-methoxyphenyl)-5-(2-methylpropyl)-2,4,5,6-tetrahydrocyclopenta[c]pyrazol-3-yl]benzonitrile], the inhibition at 0.33 µM in experiment [1] (0.33 μM) amounted to 81%. Besides, the IC50 in experiment [1] is 46 nM. In addition, the inhibition at 0.1 µM was 20% in experiment [2] (setting [3]) and -1% in experiment [2] (setting [4]). In addition, the inhibition at 1 µM was found to be 40% in experiment [2] (setting [5]) and 10% in experiment [2] (setting [6]).

Regarding `COc1ccccc1-n1nc2c(c1-c1ccc(N(C)C)cc1)CC1(C2)OC(C)(C)C(C)(C)O1` [Compound 107, 4-[2-(2-methoxyphenyl)-4′,4′,5′,5′-tetramethyl-2,6-dihydro-4H-spiro[cyclopenta[c]pyrazole-5,2′-[1,3]dioxolan]-3-yl]-N,N-dimethylaniline], the inhibition at 0.33 µM in experiment [1] (0.33 μM) is 92%. Besides, the IC50 in experiment [1] is 3 nM. Also, the inhibition at 0.1 µM in experiment [2] (setting [3]) is 33%; in experiment [2] (setting [4]), 34%.

In the case of `CCOc1ccc(-c2c3c(nn2-c2ccccc2OC)CC2(C3)OC(C)(C)C(C)(C)O2)cn1` [Compound 108, 3-(6-ethoxypyridin-3-yl)-2-(2-methoxyphenyl)-4′,4′,5′,5′-tetramethyl-2,6-dihydro-4H-spiro[cyclopenta[c]pyrazole-5,2′-[1,3]dioxolane]], in experiment [1] (0.33 μM), the inhibition at 0.33 µM turned out to be 86%. Also, the half-inhibitory concentration (IC50) in experiment [1] was found to be 10 nM. The inhibition at 0.1 µM in experiment [2] (setting [3]) came out at 13%; in experiment [2] (setting [4]) it was 3%.

Take `COc1ccccc1-n1nc2c(c1-c1ccc(C)nc1)CC1(C2)OC(C)(C)C(C)(C)O1` [Compound 109, 2-(2-methoxyphenyl)-4′,4′,5′,5′-tetramethyl-3-(6-methylpyridin-3-yl)-2,6-dihydro-4H-spiro[cyclopenta[c]pyrazole-5,2′-[1,3]dioxolane]]: the inhibition at 0.33 µM in experiment [1] (0.33 μM) stood at 84%. Besides, the half-inhibitory concentration (IC50) in experiment [1] came to 19 nM. The inhibition at 0.1 µM is 9% in experiment [2] (setting [3]) and 8% in experiment [2] (setting [4]).

Turning to `COc1ccccc1-n1nc2c(c1-c1ccc(N(C)C)nc1)CC1(C2)OC(C)(C)C(C)(C)O1` [Compound 110, 5-[2-(2-methoxyphenyl)-4′,4′,5′,5′-tetramethyl-2,6-dihydro-4H-spiro[cyclopenta[c]pyrazole-5,2′-[1,3]dioxolan]-3-yl]-N,N-dimethylpyridin-2-amine], the inhibition at 0.33 µM in experiment [1] (0.33 μM) is 90%. Further, the IC50 in experiment [1] worked out at 2.8 nM. Further, the figures for the inhibition at 0.1 µM in experiment [2] (setting [3]) and in experiment [2] (setting [4]) were 1% and -9%, respectively.

Regarding `COc1ccccc1-n1nc2c(c1-c1ccc(C#N)cc1)CC1(C2)OC(C)(C)C(C)(C)O1` [Compound 111, 4-[2-(2-methoxyphenyl)-4′,4′,5′,5′-tetramethyl-2,6-dihydro-4H-spiro[cyclopenta[c]pyrazole-5,2′-[1,3]dioxolan]-3-yl]benzonitrile], in experiment [1] (0.33 μM), the inhibition at 0.33 µM is 90%. In addition, in experiment [1], the 50% inhibitory concentration (IC50) stood at 3.7 nM. The inhibition at 0.1 µM in experiment [2] (setting [3]) is 21%; in experiment [2] (setting [4]), -5%.

Turning to `COc1ccccc1-n1nc2c(c1-c1ccc(Cl)cc1)CC1(C2)O[C@H]2CCCC[C@H]2O1` (stereo partly drawn) [Compound 112, (3aR,7aS)-3′-(4-chlorophenyl)-2′-(2-methoxyphenyl)-2′,3a,4,5,6,6′,7,7a-octahydro-4′H-spiro[1,3-benzodioxole-2,5′-cyclopenta[c]pyrazole]], the inhibition at 0.33 µM in experiment [1] was 90%. Moreover, the inhibition at 0.1 µM in experiment [2] (setting [3]) came out at 26%; in experiment [2] (setting [4]) it was 7%.

Take `COc1ccccc1-n1nc2c(c1-c1ccc(Cl)cc1)CC1(C2)O[C@H]2CCC[C@@H]2O1` [Compound 113, (3aS,6aS)-3′-(4-chlorophenyl)-2′-(2-methoxyphenyl)-2′,4,5,6,6′,6a-hexahydro-3aH,4′H-spiro[cyclopenta[d][1,3]dioxole-2,5′-cyclopenta[c]pyrazole]]: in experiment [1] (0.33 μM), the inhibition at 0.33 µM came out at 82%. The half-inhibitory concentration (IC50) in experiment [1] was found to be 42 nM. In addition, the inhibition at 0.1 µM is 3% in experiment [2] (setting [3]) and -4% in experiment [2] (setting [4]).

Consider `COc1ccccc1-n1nc2c(c1-c1ccc(Cl)cc1)CC1(C2)O[C@H]2CCC[C@H]2O1` (stereo partly drawn) [Compound 114, (3aR,6aS)-3′-(4-chlorophenyl)-2′-(2-methoxyphenyl)-2′,4,5,6,6′,6a-hexahydro-3aH,4′H-spiro[cyclopenta[d][1,3]dioxole-2,5′-cyclopenta[c]pyrazole]], for which the inhibition at 0.33 µM in experiment [1] (0.33 μM) came to 90%. Also, in experiment [1], the IC50 came out at 5 nM. Besides, in experiment [2] (setting [7]), the “QPatch at High Frequency % Inhibition” value stood at 65%. Besides, the “QPatch at Low Frequency % Inhibition” value in experiment [2] (low frequency, 0.1 μM) is recorded as 44%.

With `COc1ccccc1-n1nc2c(c1-c1ccc(Cl)cc1)CC1(C2)O[C@H]2CCC[C@H]2O1` (stereo partly drawn) [Compound 115, (3aR,6aS)-3′-(4-chlorophenyl)-2′-(2-methoxyphenyl)-2′,4,5,6,6′,6a-hexahydro-3aH,4′H-spiro[cyclopenta[d][1,3]dioxole-2,5′-cyclopenta[c]pyrazole]], the “% Inhibition (%) at 0.33 μM” value in experiment [1] (0.33 μM) came to 85%. In addition, the IC50 in experiment [1] worked out at 11 nM. In addition, the “QPatch at High Frequency % Inhibition” value in experiment [2] (setting [7]) is 37%. Further, the “QPatch at Low Frequency % Inhibition” value in experiment [2] (low frequency, 0.1 μM) worked out at 8%.

Take `COc1ccccc1-n1nc2c(c1-c1ccc(Cl)cc1)CC(N1CCC(F)(F)C1)C2` (stereo not shown) [Compound 123, 3-(4-chlorophenyl)-5-(3,3-difluoropyrrolidin-1-yl)-2-(2-methoxyphenyl)-2,4,5,6-tetrahydrocyclopenta[c]pyrazole]: the inhibition at 0.33 µM in experiment [1] (0.33 μM) stood at 91%. Besides, the IC50 in experiment [1] worked out at 19 nM. Moreover, the inhibition at 0.1 µM in experiment [2] (setting [3]) turned out to be 26%; in experiment [2] (setting [4]), 2%.

As to `COc1ccccc1-n1nc2c(c1-c1ccc(C#N)cc1)C[C@H](n1cc(C3CCCC3)nn1)C2` [Compound 124, 4-[(5S)-5-(4-cyclopentyl-1H-1,2,3-triazol-1-yl)-2-(2-methoxyphenyl)-2,4,5,6-tetrahydrocyclopenta[c]pyrazol-3-yl]benzonitrile], the inhibition at 0.33 µM in experiment [1] (0.33 μM) was 88%. Also, the IC50 in experiment [1] was 43 nM. The results for the inhibition at 1 µM in experiment [2] (setting [5]) and in experiment [2] (setting [6]) were 73% and 68%, respectively.

For `COc1ccccc1-n1nc2c(c1-c1ccc(C#N)cc1)C[C@H](n1cc(CC(C)C)nn1)C2` [Compound 127, 4-{(5S)-2-(2-methoxyphenyl)-5-[4-(2-methylpropyl)-1H-1,2,3-triazol-1-yl]-2,4,5,6-tetrahydrocyclopenta[c]pyrazol-3-yl}benzonitrile], in experiment [1] (0.33 μM), the inhibition at 0.33 µM stood at 97%. Moreover, the half-maximal inhibitory concentration (IC50) in experiment [1] was 17 nM. The inhibition at 0.1 µM in experiment [2] (setting [3]) worked out at 26%; in experiment [2] (setting [4]), 13%.

Consider `COc1ccccc1-n1nc2c(c1-c1ccc(C#N)cc1)C[C@H](n1cc(C(C)(C)C)nn1)C2` [Compound 130, 4-[(5S)-5-(4-tert-butyl-1H-1,2,3-triazol-1-yl)-2-(2-methoxyphenyl)-2,4,5,6-tetrahydrocyclopenta[c]pyrazol-3-yl]benzonitrile], for which the inhibition at 0.33 µM in experiment [1] (0.33 μM) amounted to 92%. Besides, the 50% inhibitory concentration (IC50) in experiment [1] turned out to be 50 nM. In addition, the inhibition at 1 µM in experiment [2] (setting [5]) worked out at 57%; in experiment [2] (setting [6]) it was 39%.

Consider `CCc1ncn([C@@H]2Cc3nn(-c4ccccc4OC)c(-c4ccc(C#N)cc4)c3C2)c1CC` [Compound 139, 4-[(5S)-5-(4,5-diethyl-1H-imidazol-1-yl)-2-(2-methoxyphenyl)-2,4,5,6-tetrahydrocyclopenta[c]pyrazol-3-yl]benzonitrile], for which the inhibition at 0.33 µM in experiment [1] (0.33 μM) was found to be 87%. Further, the half-inhibitory concentration (IC50) in experiment [1] is 37 nM. The inhibition at 1 µM came to 66% in experiment [2] (setting [5]) and 72% in experiment [2] (setting [6]).
